Test results from patent US20010021514A1, “Luminescent metal-ligand complexes” (priority 1999, published 2001).
Where two headings read alike, the source gives them in different places.

Experiments:
[1] = background statement on known luminophores; cited from earlier work
[2] = Intrinsic polarization from excitation polarization spectra in vitrified solution; format: physicochemical; details: for fundamental anisotropy r0: corresponding to the intrinsic polarization; for intrinsic polarization P0: excitation polarization spectra in vitrified solution (glycerol: water=6:4; −55° C.)
Excerpt: Aspects of the invention include the use of selected long-lifetime metal-ligand complexes in luminescence polarization assays. Here, as elsewhere in the application, polarization assays encompass any assays involving detection of polarized light, including steady-steady and time-resolved assays, and computation of polarization and anisotropy functions, among others. […] Here, the invention was used without limitation to monitor interactions between human serum albumin (HSA) and goat-anti-HSA (IgG) antibodies. The HSA was labeled with a ruthenium-ligand complex polarization probe, Sunnyvale Red™ (SVR™), as described elsewhere in this application. […] These values were determined by measuring the excitation polarization spectra in vitrified solution (glycerol: water=6:4; −55° C.).

[3] = Photoluminescence properties of the probe (spectra, Stokes' shift, lifetime, extinction); format: physicochemical
Excerpt: Photoluminescence may be characterized by a number of parameters, including extinction coefficient, excitation and emission spectrum, Stokes' shift, luminescence lifetime, and quantum yield. An extinction coefficient is a wavelength-dependent measure of the absorbing power of a luminophore. An excitation spectrum is the dependence of emission intensity upon the excitation wavelength, measured at a single constant emission wavelength. An emission spectrum is the wavelength distribution of the emission, measured after excitation with a single constant excitation wavelength. A Stokes' shift is the difference in wavelengths between the maximum of the emission spectrum and the maximum of the absorption spectrum. A luminescence lifetime is the average time that a luminophore spends in the excited state prior to returning to the ground state. A quantum yield is the ratio of the number of photons emitted to the number of photons absorbed by a luminophore.

Row | Compound | luminescence lifetime (general statement) [1] | fundamental anisotropy r0 [2] | fundamental anisotropy r0 ([2]; listed as SVR) | intrinsic polarization P0 [2] | intrinsic polarization P0 ([2]; listed as SVR) | Stokes' shift [3] [nm] | emission maximum [3] [nm] | excitation maximum [3] [nm] | luminescence lifetime [3] | excitation maximum ([3]; listed as SVR) [nm] | luminescence lifetime ([3]; listed as SVR) [ns] | extinction coefficient E(SVR) ([3]; used with A479 for dye concentration)
1 | O=C([O-])c1ccnc(-c2cc(C(=O)[O-])ccn2)c1.[Ru+2].c1ccc(-c2ccccn2)nc1.c1ccc(-c2ccccn2)nc1 [Ru(bpy)2dcbpy, ruthenium 2,2′-dibipyridyl 4,4′-dicarboxyl-2,2′-bipyridine] | roughly 400 nanoseconds |  |  |  |  |  |  |  |  |  |  | 
2 | Ru(bpy)2(dacbpy)-ITC [Sunnyvale Red™] |  | about 0.28 | 0.27 | about 0.37 | 0.36 | ~200 | 670 | 488 | about 360 ns | 487 | 360 | ~15,000
